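Briefly, cells in 96-well plates were exposed to five compound concentrations for 48 h, and endpoints were estimated by linear interpolation. GI50 is the concentration that inhibits growth by half. TGI marks complete inhibition of growth.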

Assay in all cases: NCI tumour cell line growth inhibition, 48 h
Assay [1] concerns RXF 393 renal.
Assay [2] deals with CAKI-1 renal.
In assay [3] the test system is SN12C renal.
In assay [4] the test system is M14 melanoma.
In assay [5] the test system is NCI-H460 lung.
The test system of assay [6] is SF-539 CNS.
Assay [7] concerns OVCAR-8 ovarian.
For assay [8], the system named is K-562 leukemia.
The test system of assay [9] is OVCAR-3 ovarian.

As to `CC(=O)OC1CC2C(C)(C)C(=O)C=C[C@]2(C)C2CCC3(C)C(c4ccoc4)C(=O)[C@H]4O[C@]43[C@]12C` (stereo not given in full), the TGI worked out at 47.5 µM in [1]; 75.1 µM in [2]; 66.1 µM in assay [3]; 82.4 µM in assay [4]; 36.8 µM in assay [5]; 39.9 µM in [6]. For the same compound, the TGI in assay [7] turned out to be 49.9 µM; in assay [8], 59.5 µM.

`O=C1C[C@@H]2C(COC(=O)c3ccccc3)N(OCc3ccccc3)C[C@@H]2O1` (stereo not given in full): the TGI in assay [1], in assay [3], in [4], in [5], in assay [6] and in [7] was more than 100 µM each time. The TGI in assay [8] and in [9] was more than 100 µM throughout.

Turning to `CN1c2ccccc2N(C)C2C1N(C)c1ccccc1N2C` (stereo not given), the TGI was 32.6 µM in assay [1]; more than 100 µM in assay [2]; more than 100 µM in [3]; 65 µM in assay [4]; more than 100 µM in assay [5]; 45.8 µM in assay [6]. Further, the TGI in assay [7] is more than 100 µM; in [8], more than 100 µM; in assay [9], 50.2 µM.

With `CN(C)CCCN1c2nc3ccccc3cc2Sc2cc3ccccc3nc21`, the GI50 in [2] is 1.46 µM; in [3], 1.28 µM; in assay [4] it was 1.69 µM; in assay [5], 1.6 µM; in [6], 1.61 µM; in assay [8], 0.639 µM. Also, the GI50 in assay [9] was 1.53 µM. Also, the TGI in assay [2] is 3.01 µM; in assay [3], 2.55 µM; in assay [4], 3.23 µM; in assay [5], 3.13 µM; in [6], 2.97 µM; in assay [8] it was more than 100 µM. For the same compound, the TGI in assay [9] stood at 2.92 µM.

For the compound `Cc1ccc(S(=O)(=O)NC(=O)NC23CC4CC(CC(F)(C4)C2)C3)cc1`, the TGI in assay [1], in assay [4], in [5], in [6], in [7] and in assay [8] was more than 100 µM each time. Moreover, in [9], the TGI is more than 100 µM.

With `CC(=O)O[C@H]1CC[C@@]2(C)C(=CC[C@H]3C4=CC=C(C(C)=O)[C@@]4(C)CCC32)C1` (stereo not given in full), the TGI in assay [1] was 63.7 µM; in [2] it was more than 100 µM; in assay [3], more than 100 µM; in assay [4], more than 100 µM; in assay [5], more than 100 µM; in assay [6], more than 100 µM. Besides, the values for the TGI in assay [7] and in [9] were 66.3 µM and more than 100 µM, respectively.

For the compound `CC1(C)OC(=O)C=C([O-])O1.CC1(C)OC(=O)C=C([O-])O1.O=S(=O)([O-])c1ccc([O-])c2ncccc12.O=S(=O)([O-])c1ccc([O-])c2ncccc12.[Ti+4]`, the GI50 is more than 100 µM in assay [1]; more than 100 µM in assay [2]; more than 100 µM in assay [3]; 69.2 µM in assay [4]; 41.8 µM in assay [5]; 78.5 µM in [6]. For the same compound, the GI50 is 83.4 µM in assay [7], more than 100 µM in [8] and 86.4 µM in [9]. The TGI in [1], in [2], in assay [3], in [4], in assay [5] and in assay [6] was more than 100 µM throughout. Further, the TGI in assay [7], in assay [8] and in assay [9] was more than 100 µM in each case.

Regarding `ClC(Cl)c1nc(-c2cccnc2)n2nc(-c3ccccc3)cc2n1`, the GI50 in assay [1] was 1.13 µM; in assay [2], 1.73 µM; in assay [4], 1.14 µM; in [5], 1.09 µM; in assay [8] it was 1.33 µM; in assay [9] it was 1.61 µM. Besides, the TGI in [1] is 2.45 µM; in assay [2], 5.51 µM; in [4], 2.79 µM; in [5] it was 4.21 µM; in assay [8], more than 100 µM; in assay [9] it was 4.16 µM.

Consider `CCC(=O)C(C)C1=Nc2nnc(CCCCCCCc3nnc4n3C(=O)C(C(C)C(=O)CC)=N4)n2C1=O` (stereo not given), for which the TGI in [1], in assay [2], in [3], in [4], in [5] and in assay [6] was more than 100 µM each time. The TGI in assay [7], in assay [8] and in assay [9] was more than 100 µM in each case.

With `COC1OC(CO)C(O)C(O)C1Br` (stereo not given), the TGI in [1], in assay [2], in [3], in assay [4], in [5] and in assay [6] was more than 100 µM each time. The TGI in assay [7], in assay [8] and in assay [9] was more than 100 µM throughout.

On to `O=S(=O)(NCC1CCC(CNc2ccc(Cl)cc2)CC1)c1ccc(-c2ccccc2)cc1` (stereo not given), for which the GI50 in [2] is 25.6 µM; in assay [3], more than 50 µM; in assay [4], more than 50 µM; in assay [5], 42.5 µM; in assay [6], more than 50 µM; in [7], 41.4 µM. Further, the GI50 in assay [8] is 17.4 µM; in [9], 10.7 µM. In addition, the TGI in assay [2], in assay [3], in [4], in assay [5], in assay [6] and in [7] was more than 50 µM each time. The TGI in assay [8] and in [9] was more than 50 µM throughout.

Consider `CN1NC2(CCCCC2)ON=C1c1ccccc1`, for which the TGI in assay [1], in assay [2], in assay [3], in [4], in [5] and in assay [6] was more than 100 µM each time. The TGI in assay [7], in assay [8] and in assay [9] was more than 100 µM each time.

`C1CCN(c2nsc(N3CCCCC3)n2)CC1`: the TGI in [1], in [2], in assay [3], in assay [4], in assay [5] and in assay [6] was more than 100 µM in each case. Besides, the TGI in [7] and in assay [8] was more than 100 µM each time.

Regarding `COc1ccc2c(c1OC)C1=C(C2=O)c2cc3c(cc2CCN1)OCO3`, the TGI was more than 100 µM in [1]; 83 µM in [2]; more than 100 µM in assay [3]; more than 100 µM in assay [4]; 92.7 µM in [5]; 61.2 µM in assay [6]. The figures for the TGI in assay [7], in [8] and in assay [9] were more than 100 µM, 87.8 µM and 90.7 µM, respectively.

As to `COC(=O)c1sc(C(=O)OC)c2c1CSC2`, the TGI was more than 97.1 µM in [1]; more than 100 µM in [2]; more than 100 µM in assay [3]; more than 100 µM in [4]; more than 100 µM in assay [5]; more than 100 µM in assay [6]. The TGI in [7], in assay [8] and in [9] was more than 100 µM throughout.

Regarding `COCC(=O)CP(=O)(OC)OC`, the TGI in [1], in assay [2], in assay [3], in [4], in assay [5] and in [6] was more than 100 µM in each case. For the same compound, the TGI in [7], in [8] and in assay [9] was more than 100 µM in each case.

For `CCNC(=O)C#CC(=O)NCC`, the GI50 in [1] is more than 100 µM; in assay [2], more than 10 µM; in assay [3] it was more than 10 µM; in [4] it was more than 10 µM; in [5], more than 10 µM; in [6] it was more than 10 µM. In addition, the GI50 in [7], in [8] and in assay [9] was more than 10 µM in each case. Further, the TGI in assay [1], in assay [2], in assay [3], in assay [4], in assay [5] and in assay [6] was more than 100 µM in each case. In addition, the values for the TGI in [7], in assay [8] and in assay [9] were more than 100 µM, more than 70.2 µM and more than 100 µM, respectively.

Consider `C(CCC[Te][Te]CCCCCCOC1CCCCO1)CCOC1CCCCO1` (stereo not given), for which the TGI in assay [2] is 82.6 µM; in [3] it was 29.4 µM; in assay [4], more than 100 µM; in assay [5] it was 30 µM; in [6], 32.1 µM; in assay [7], 33.9 µM. Also, in assay [8], the TGI is 29.7 µM.

In the case of `CC(=O)OCCOCNC(=S)N/N=C(\C)c1cnc2ccccc2n1`, the TGI in assay [1], in assay [3], in assay [4], in [5], in assay [6] and in [7] was more than 100 µM each time. Moreover, the TGI in assay [8] and in assay [9] was more than 100 µM throughout.

For the compound `COc1ccc(C(N)=O)cc1N=NN(C)C`, the TGI in assay [2], in [3], in assay [4], in assay [5], in [6] and in assay [7] was more than 100 µM each time. For the same compound, the TGI in assay [8] and in assay [9] was more than 100 µM each time.

As to `CN(CN1C(=O)C2Cc3ccccc3CN2C1=O)c1ccccn1` (stereo not given), the TGI in assay [2], in assay [3], in [4], in assay [5], in [6] and in assay [7] was more than 100 µM in each case. The TGI in [8] and in assay [9] was more than 100 µM each time.

As to `Cc1c(C(=O)c2ccccc2C(=O)O)c2ccccc2n1C`, the TGI in assay [1], in assay [2], in assay [4], in assay [5], in [6] and in assay [7] was more than 100 µM throughout. Further, the TGI in assay [8] and in [9] was more than 100 µM throughout.

With `O=C(O)/C(=C/c1c(O)ccc2ccccc12)c1csc(-c2nc(/C(=C\c3c(O)ccc4ccccc34)C(=O)O)cs2)n1`, the TGI stood at 14 µM in [1]; 25.4 µM in assay [4]; 49.1 µM in assay [5]; 19.1 µM in assay [6]; 49.4 µM in assay [7]; 38.6 µM in assay [8]. For the same compound, in assay [9], the TGI came to 31.3 µM.

Take `CO/C1=C\C(C)=C\C(C)C(O)C(C)C/C(C)=C/C=C/C(OC)C(C(C)C(O)C(C)C2(O)CC(O)C(C)C(C(C)C)O2)OC1=O` (stereo not given): the figures for the GI50 in assay [1] and in assay [2] were 11.1 µM and 0.021 µM, respectively. The TGI is 9.89 µM in assay [2]; 17.6 µM in assay [3]; 0.00127 µM in assay [4]; 0.0827 µM in assay [6]; 10.4 µM in assay [7]; 13.7 µM in assay [8].

In the case of `CCOC(=O)C1(Cc2ccccc2)CCCCCN1` (stereo not given), the TGI in assay [1], in assay [2], in assay [3], in assay [4], in assay [5] and in assay [7] was more than 100 µM each time. Also, the TGI in assay [8] and in assay [9] was more than 100 µM each time.

For the compound `NC(=O)N/N=C/C(/C=N/NC(N)=O)[N+](=O)[O-]`, the TGI in assay [1], in [2], in [3], in assay [4], in assay [6] and in [8] was more than 100 µM in each case. This compound returned a TGI in [9] of more than 100 µM.

Take `O=c1cc2ccccc2nn1Cc1ccccc1Cl`: the TGI in assay [2], in assay [3], in assay [4], in [5], in [6] and in assay [7] was more than 100 µM each time. The TGI in assay [8] and in [9] was more than 100 µM throughout.

As for `N=c1nnc(=O)c2c(s1)-n1ncc(C(=O)O)c1NN2`, the TGI in assay [1], in [2], in assay [3], in assay [4], in [6] and in assay [7] was more than 100 µM in each case. Moreover, the TGI in assay [8] and in assay [9] was more than 100 µM throughout.

These data come from PubChem BioAssay (NCI).
